In patent US9566265B2, “Carbazole compounds and therapeutic uses of the compounds” (Incuron, LLC, priority 2008, dated 2017):
In brackets after ≈: the same amount, converted by molar mass. Like-named read-outs stand apart in the source and are kept apart here.

Tests used:
p53 = p53 activation assay, p53 responsive luciferase reporter cell line; assay type: cell-based, human; details: Homo sapiens, 16 h, HT1080-L or RCC45ConALuc reporter cells, 16 h; read-out: EC50 value (p53 activation)
Bloodstream T. brucei = assay: T. brucei bloodstream form in vitro killing; assay type: cell-based, Trypanosoma brucei
Protocol: Preliminary T. brucei inactivation experiments were performed in vitro. The life cycle of T. brucei involves a “procyclic” developmental stage in a tsetse fly, and a “bloodstream” form in humans. All studies were performed with the bloodstream stage of the parasite, because it is the disease-causing developmental stage.
Suramin, a conventional anti-HAT drug, was used as a positive control.
Bloodstream T. brucei was seeded (3×10^3 cells/mL) in 24-well (500 uL of the media per well) plate. […] Control cultures received equal volumes of DMSO.

C. albicans = assay: microbe, parasite or virus in culture; assay type: cell-based; details: Candida albicans
Description: Candida spp. strains: 20 Candida spp. clinical isolates and one laboratory control strain (C. albicans SC5314) was used in the study. In the collection were included:
5 C. albicans isolates, two wild type strain (SC5314 and ATCC 36082), one echinocandin resistant isolate (M205) (6), and two fluconazole resistant clinical isolates (3795 and 3184) (7).

[1] = test system: HCT-116, DLD1, Caki1 and MDA-MB-231 tumors; assay: various human tumour xenografts sc; assay type: in vivo, nude or SCID mice; details: tumor cells inoculated as a cell suspension
Protocol: (§1) In this study, the antitumor effect and toxicity of the three carbazoles against HCT-8 and HT29 colon cancer tumors were compared with treatment beginning when the tumor size reached 150-200 mg (about 7 days after tumor transplantation).

[2] = test system: human HCT-8 ileocecal adenocarcinoma xenografts
Protocol: as §1
Eight to twelve-week-old female athymic nude mice (nu/nu, body weight 22-25 g) were obtained from Harlan Sprague Dawley Inc. (Indianapolis, Ind.) and maintained at five mice/cage with water and food ad libitum according to an institutionally approved animal protocol.
Human ileocecal adenocarcinoma HCT-8 and colon adenocarcinoma HT-29 xenografts were used. The xenografts were initially established by injecting s.c 10^6 cultured cells and tumors were passed several generations by transplanting about 50 mg non-necrotic tumor (2-3 pieces) via a trocar from the passage tumors when the tumors reach to 1-1.5 g.
Treatment was initiated 7 days after tumor transplantation when the tumors reached 150-200 mg. The mice in the control group received the vehicle (0.2% hydroxypropylmethylcellulose) at 200 μl per 20 g mouse body weight (same as the treatment groups). Five mice were used for each experimental group with 10 tumors (1 tumor each in the left and right side flanks).
Two axes (mm) of tumor (L, longest axis; W, shortest axis) were measured with the aid of a Vernier caliper. Tumor weight (mg) was estimated using a formula: tumor weight=½ (L×W2). Tumor measurements were taken daily at the same time as drug treatment and 3-4 times a week of post therapy.
The kinetics of drug-induced toxicities (body weight loss, diarrhea, and lethality) were determined daily for the first 10 days after treatment and every two days thereafter.
Antitumor activity was assessed by maximum tumor growth inhibition (MTRI) which is the mean tumor weight of treated group (MTWTG) compared with untreated control group (MTWCG) at the same time point (MTRI=MTWTG−MTWCG)÷MTWCG×100%). The tumor doubling time (TDT) was defined as the mean time for the tumor to reach twice its initial weight. Tumor response was expressed as partial tumor response (PR) when tumor weight was reduced at least 50% of the initial tumor size and complete tumor response (CR) was defined as the inability to detect tumor upon palpation at the initial site of tumor appearance.

in vivo = details: nude, mouse, po
Protocol: Drug doses and schedule. […] Treatment was initiated 7 days after tumor transplantation when the tumors reached 150-200 mg. The mice in the control group received the vehicle (0.2% hydroxypropylmethylcellulose) at 200 μl per 20 g mouse body weight (same as the treatment groups). Five mice were used for each experimental group with 10 tumors (1 tumor each in the left and right side flanks).
Maximum Tolerated Dose (MTD) and toxicity evaluation. […] The kinetics of drug-induced toxicities (body weight loss, diarrhea, and lethality) were determined daily for the first 10 days after treatment and every two days thereafter.

A. fumigatus = assay: in vitro susceptibility CLSI M38A2, MIC; details: Aspergillus fumigatus
Description: Eight Aspergillus spp. strains were used throughout the study. Six A. fumigatus, one A. flavus and one A. terreus also were used. The A. fumigatus group included two itraconazole-resistant strains (RIT13 and RIT5 strains) (1), one triazole cross-resistant strain (MUT10) (2, 3), one echinocandin cross-resistant strain (EMFRS678P) (4), and 2 wild type susceptible isolates (R21 and ATCC13073).

[3] = test system: Caki1 human renal cell carcinoma cells; assay: Caki1 renal cell carcinoma xenograft efficacy test
Protocol: In an efficacy test using these three compounds, athymic nude mice were inoculated subcutaneously with a suspension of Caki1 human renal cell carcinoma cells into both rear flanks. When at least one tumor in a mouse reached 20-50 mm^3, treatment was commenced. […] As a positive control, one group was treated with 40 mg/kg Sunitinib, an approved drug for the treatment of renal cell carcinoma. Treatment was given for 4 weeks on a 5 day on/2 day off schedule. After treatment was completed, mice were monitored for an additional 4 weeks to determine how quickly tumor growth returned to normal.

Which EC50 (p53) does the source give for `CCN(CC)CCn1c2ccc3c(c2c2c4c(ccc21)C(=O)CC4)CCC3=O` [Example 15] here?
The EC50 was 30 nM.

What about the “elimination of parasites” value (Bloodstream T. brucei; 48 hrs, up to 200 nM Example 7, 20 nM Example 13, 3 nM Example 15) of the same compound?
The value was “completely eliminated T. brucei”.

And the IC50 (Bloodstream T. brucei; Trypanosoma brucei, read-out: IC50 (concentration that killed 50% of the parasites), bloodstream stage, 48 hrs of culture)?
The IC50 was roughly 0.5 nM.

And the MIC (C. albicans; read-out: MIC* (48 hs), strain 3184, CDR1 overexpression, Fluconazole- resistant)?
Its MIC is 0.66 µM (≈ 0.247 µg/mL).

What about the MIC (C. albicans; strain ATCC36082, WT, Susceptible, read-out: MIC* (24 hs)) of the same compound?
The MIC was 0.04 µM (≈ 0.015 µg/mL).

What about the MIC (C. albicans; strain ATCC36082, WT, Susceptible, read-out: MIC* (48 hs)) of the same compound?
The MIC was 0.04 µM (≈ 0.015 µg/mL).

And the MIC (C. albicans; strain SC5314, WT, Susceptible, read-out: MIC* (24 hs))?
Its MIC is 0.04 µM (≈ 0.015 µg/mL).

And the MIC (C. albicans; strain SC5314, WT, Susceptible, read-out: MIC* (48 hs))?
Its MIC is 0.08 µM (≈ 0.03 µg/mL).

What about the “antitumor efficacy” value [1] of the same compound?
The value was “antitumor efficacy”.

And the “Antitumor Activity MTGI (%)” value ([2]; p.o. at MTD, 5 days on/2 days off per week, Example 15 5, Example 7 30, Example 13 25 mg/kg/d)?
The value was 40.0 ± 18.6%.

And the “Toxicity (%) lethality” value ([2]; same)?
Its value is 0%.

And the “CR (%)” value ([2]; same, complete tumor response)?
The value was 0%.

And the “Toxicity (%) MWL” value ([2]; same, maximum weight loss of pretreatment body weight)?
Its value is 10.0 ± 3.8%.

And the “PR (%)” value ([2]; same, partial tumor response)?
The value was 0%.

And the “Antitumor Activity TDT” value ([2]; same, tumor doubling time)?
Its value is 7.5 ± 3.5 days.

What about the “delay of tumor growth compared to the vehicle control (double time 4.8 days)” value ([2]; text b677) of the same compound?
The value was 57%.

And the MTD at 4 weeks (in vivo)?
The MTD at 4 weeks was 5 mg/kg/day.

What about the MIC (A. fumigatus; ATCC13073, read-out: MIC* (24 hs), strain ATCC13073, WT, Susceptible) of the same compound?
Its MIC is 2.56 µM (≈ 0.959 µg/mL).

And the MIC (A. fumigatus; ATCC13073, read-out: MIC* (48 hs), strain ATCC13073, WT, Susceptible)?
The MIC was 5.13 µM (≈ 1.92 µg/mL).

And the MIC (A. fumigatus; read-out: 24 hs MIC Geom. Means, A. fumigatus strains)?
The MIC was 1.59 µM (≈ 0.595 µg/mL).

And the MIC (A. fumigatus; read-out: MIC* (24 hs), strain EMFRS678P, Fks1pS678P, Echinocandin cross-resistant)?
The MIC was 1.28 µM (≈ 0.479 µg/mL).

What about the MIC (A. fumigatus; read-out: MIC* (24 hs), strain MUT10, Cyp51Ap G138C, Triazole cross resistant) of the same compound?
Its MIC is 0.66 µM (≈ 0.247 µg/mL).

And the MIC (A. fumigatus; read-out: MIC* (24 hs), strain R21, WT, Susceptible)?
The MIC was 1.28 µM (≈ 0.479 µg/mL).

What about the MIC (A. fumigatus; read-out: MIC* (24 hs), strain RIT5, Itraconazole resistant) of the same compound?
Its MIC is 0.66 µM (≈ 0.247 µg/mL).

What about the MIC (A. fumigatus; read-out: MIC* (24 hs), strain RIT13, Itraconazole resistant) of the same compound?
The MIC was 1.61 µM (≈ 0.603 µg/mL).

What about the MIC (A. fumigatus; read-out: MIC* (48 hs), strain EMFRS678P, Fks1pS678P, Echinocandin cross-resistant) of the same compound?
Its MIC is 2.56 µM (≈ 0.959 µg/mL).

What about the MIC (A. fumigatus; read-out: MIC* (48 hs), strain MUT10, Cyp51Ap G138C, Triazole cross resistant) of the same compound?
Its MIC is 1.28 µM (≈ 0.479 µg/mL).

What about the MIC (A. fumigatus; read-out: MIC* (48 hs), strain R21, WT, Susceptible) of the same compound?
The MIC was 2.56 µM (≈ 0.959 µg/mL).

What about the MIC (A. fumigatus; read-out: MIC* (48 hs), strain RIT5, Itraconazole resistant) of the same compound?
The MIC was 1.28 µM (≈ 0.479 µg/mL).

And the MIC (A. fumigatus; read-out: MIC* (48 hs), strain RIT13, Itraconazole resistant)?
The MIC was 1.28 µM (≈ 0.479 µg/mL).

And the weight loss ([3]; 5 mg/kg oral, short-term)?
Its weight loss is 10-15%.

What about the “tumor growth inhibition compared to the vehicle control” value ([3]; Day 24 (end of treatment), oral gavage 5 day on/2 day off, Example 7 30, Example 15 5, Example 13 25, Sunitinib 40 mg/kg) of the same compound?
The value was 50%.
